Source: ChEMBL document CHEMBL6092217 (Eur J Med Chem, 2024)
pIC50: −log10 of the molar value. Calls of active or inactive are those of the source. The calls are words filed in the database; no cut-off is given here.

Experiments:
Tubulin (Homo sapiens) [1] = biological target: T1, Tubulin (Homo sapiens) (UniProt P68371+Q9H4B7+P0DPH7+P68366+Q13509+Q71U36+P04350+Q3ZCM7+P07437+P68363+Q9BQE3+Q6PEY2+Q13885+Q9BVA1+Q9BUF5); experiment: (§1) Inhibition of tubulin polymerization (unknown origin) in presence of GTP by fluorescence plate reader analysis; format: protein-complex assay; settings: dose 0.625-10 µM
Tubulin = experiment: as §1; format: protein-complex assay, Homo sapiens
Tubulin (Homo sapiens) [2] = biological target: T1, Tubulin (Homo sapiens); experiment: Inhibition of tubulin polymerization in human HT-29 cells assessed as upregulation of DeY- alpha-tubulin expression 50 to 200 nM incubated for 24 hrs by Western blot analysis; format: cell-based; settings: dose 50-200 nM
HT-29 [3] = experiment: Induction of apoptosis in human HT-29 cells assessed as early apoptotic cells at 100 nM incubated for 24 hrs by FITC/PI staining based flow cytometry analysis (reference value: 8.14%); format: functional
HT-29 [4] = experiment: Induction of apoptosis in human HT-29 cells assessed as early apoptotic cells at 200 nM incubated for 24 hrs by FITC/PI staining based flow cytometry analysis (reference value: 8.14%); format: functional
HT-29 [5] = experiment: Antitumor activity against human HT-29 cells xenografted in BALB/c mouse assessed as tumor growth inhibition at 20 mg/kg, iv measured after 21 days; format: functional; settings: HT-29, 504 h, time 21 day, read-out: TGI

COc1ccc(N(C)c2nc(/C=C/c3cccc(OC)c3)nc3ccccc23)cc1
inhibition (Tubulin (Homo sapiens) [1]): Dose-dependent-effect | pIC50 (Tubulin): 5.50 | inhibition (Tubulin (Homo sapiens) [2]): Active | Activity (HT-29 [3]): 2.87% | Activity (HT-29 [4]): 18.2% | inhibition in vivo at 20 mg/kg (HT-29 [5]): 64.7%
